Laboratory results published in US20240327429A1, “[1,3]Thiazolo[4,5-d]-pyrimidon-7-ones as inhibitors of NOX4” (Boehringer Ingelheim International GmbH, priority 2023, published 2024).
pIC50: −log10 of the molar value.

Legend:
NOX2 = biological target: T1, NOX2 (Homo sapiens, UniProt P04839); assay: NOX2 inhibition assay (L-012), human blood-derived granulocytes; type: cell-based; settings: fMLP/PMA stimulated
T1 construct: endogenous in cells; host or cells: freshly isolated human blood-derived granulocytes
T1 sequence (P04839 2-570 limits assumed): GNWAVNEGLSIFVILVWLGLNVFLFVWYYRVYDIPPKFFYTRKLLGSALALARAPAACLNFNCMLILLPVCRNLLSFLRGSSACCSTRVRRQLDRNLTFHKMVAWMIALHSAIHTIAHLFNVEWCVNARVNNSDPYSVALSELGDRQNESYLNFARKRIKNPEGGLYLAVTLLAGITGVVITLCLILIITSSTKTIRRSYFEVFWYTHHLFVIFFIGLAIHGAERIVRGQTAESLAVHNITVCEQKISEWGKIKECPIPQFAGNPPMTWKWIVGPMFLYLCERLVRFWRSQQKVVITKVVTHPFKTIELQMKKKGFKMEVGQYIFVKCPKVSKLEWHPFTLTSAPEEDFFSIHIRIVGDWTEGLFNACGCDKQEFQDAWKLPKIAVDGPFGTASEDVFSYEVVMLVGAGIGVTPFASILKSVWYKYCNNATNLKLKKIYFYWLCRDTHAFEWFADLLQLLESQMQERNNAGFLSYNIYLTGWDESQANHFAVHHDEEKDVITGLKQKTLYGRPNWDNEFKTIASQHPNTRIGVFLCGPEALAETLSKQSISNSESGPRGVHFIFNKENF
T1 sequence (P13498 2-195 partner limits assumed): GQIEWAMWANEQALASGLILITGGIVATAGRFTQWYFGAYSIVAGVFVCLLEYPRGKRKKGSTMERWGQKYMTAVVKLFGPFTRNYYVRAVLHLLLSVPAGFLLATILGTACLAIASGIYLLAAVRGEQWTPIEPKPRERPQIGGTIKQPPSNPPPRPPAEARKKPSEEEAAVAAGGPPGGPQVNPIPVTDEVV
Procedure: Evaluation of the NOX4 inhibitors on NOX2 activity is assessed in human blood-derived granulocytes.
Afterwards, freshly isolated granulocytes are added to the wells containing the compounds in assay buffer and incubated for 1 h at 37° C. Next, a solution of Nformylmethionine-leucyl-phenylalanine (fMLP; 730 nM), phorbol myristate acetate (PMA, 100 nM) (stimuli of ROS production) and L-012 (200 μM, ROS indicator) is added to the wells and the cells are incubated for additional 30 mins at 37° C. Afterwards luminescence is measured in a SpectraMax M5 microplate reader.

human NOX5 (hNOX5) = biological target: T2, human NOX5 (hNOX5) (Homo sapiens, UniProt Q96PH1); assay: NOX5 inhibition assay (L-012), HEK293 cells stably overexpressing human NOX5; type: cell-based; settings: HEK293-hNOX5, PMA stimulated
T2 construct: expressed in transfected cells; host or cells: HEK293
T2 sequence (Q96PH1 1-765): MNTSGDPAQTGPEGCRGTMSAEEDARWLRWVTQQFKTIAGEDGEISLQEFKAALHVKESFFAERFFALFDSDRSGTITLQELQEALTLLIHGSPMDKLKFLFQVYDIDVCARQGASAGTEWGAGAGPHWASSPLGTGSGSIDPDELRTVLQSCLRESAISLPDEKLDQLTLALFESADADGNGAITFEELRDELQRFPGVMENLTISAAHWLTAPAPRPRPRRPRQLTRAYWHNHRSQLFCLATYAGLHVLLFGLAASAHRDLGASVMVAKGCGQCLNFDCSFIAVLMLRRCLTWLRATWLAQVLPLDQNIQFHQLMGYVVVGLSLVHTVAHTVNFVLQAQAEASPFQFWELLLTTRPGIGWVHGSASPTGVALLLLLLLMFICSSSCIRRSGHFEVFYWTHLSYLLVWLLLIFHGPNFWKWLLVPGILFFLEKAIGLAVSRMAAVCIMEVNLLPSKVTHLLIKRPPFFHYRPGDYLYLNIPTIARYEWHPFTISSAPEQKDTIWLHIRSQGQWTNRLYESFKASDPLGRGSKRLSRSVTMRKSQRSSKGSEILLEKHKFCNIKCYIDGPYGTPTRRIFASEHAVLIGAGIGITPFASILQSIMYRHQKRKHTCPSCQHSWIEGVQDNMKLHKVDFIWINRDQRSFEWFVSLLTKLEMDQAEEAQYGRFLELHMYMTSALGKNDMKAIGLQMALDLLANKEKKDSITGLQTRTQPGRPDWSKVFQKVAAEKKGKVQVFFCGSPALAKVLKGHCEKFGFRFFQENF
Procedure: The synthetic gene hNOX5 (Accession: Q96PH1) is cloned into pcDNA3.1_Zeo. […] The final construct is verified by sequencing.
Evaluation of the NOX4 inhibitors on NOX5 activity is assessed in HEK293 cells stably overexpressing human NOX5 (hNOX5).
Cells are seeded in 384 well plates over-night. […] Cells are then stimulated with PMA at 0.1 μM to induce NOX5-dependent ROS production. […] Luminescence is measured with an PHERAstar multimode reader.

pIC50 (NOX2)	pIC50 (human NOX5 (hNOX5))	Structure (SMILES)
4.98	< 4.00	O=c1c2scnc2nc(SCc2c(F)cc(F)cc2F)n1-c1cnc(O)c(F)c1 [Example 31, 6-(5-Fluoro-6-hydroxypyridin-3-yl)-5-((2,4,6-trifluorobenzyl)thio)thiazolo[4,5-d]-pyrimidin-7(6H)-one]
< 4.00	4.32	O=c1c2scnc2nc(SCc2ccc(Cl)cc2Cl)n1-c1cnc(O)c(F)c1 [Example 39]
4.99	4.23	O=c1c2scnc2nc(SCc2c(F)cc(F)cc2F)n1-c1ccc(O)cc1 [Example 15]
< 4.52	< 4.00	N#Cc1cc(-n2c(SCc3c(F)cc(F)cc3F)nc3ncsc3c2=O)cnc1O [Example 47, 2-Hydroxy-5-(7-oxo-5-((2,4,6-trifluorobenzyl)thio)thiazolo[4,5-d]pyrimidin-6(7H)-yl)-nicotinonitrile]
< 4.00	4.13	O=c1c2scnc2nc(SCc2ccc(C(F)(F)F)cc2)n1-c1ccc(O)nn1 [Example 66]
< 4.00	4.25	Cc1c(F)cccc1CSc1nc2ncsc2c(=O)n1-c1cnc(O)c(F)c1 [Example 40]
< 4.00	< 4.00	Cc1cc(F)cc(C)c1CSc1nc2ncsc2c(=O)n1-c1cnc(O)c(F)c1 [Example 43]
< 4.00	4.33	O=c1c2scnc2nc(SCc2ccc(C(F)(F)F)cc2F)n1-c1cnc(O)c(F)c1 [Example 42]
< 4.00	< 4.00	O=c1c2scnc2nc(SCc2ccc(Cl)cc2)n1-c1cc(F)c(O)c(F)c1 [Example 5]
< 4.52	4.89	O=c1c2scnc2nc(SCc2c(F)cc(F)cc2F)n1-c1ccc(O)c(F)c1 [Example 11]
< 4.52	< 4.00	O=c1c2scnc2nc(SCc2c(F)cc(F)cc2F)n1-c1cc(F)c(O)c(F)c1 [Example 8]
< 4.00	< 4.00	Cc1cc(F)cc(C)c1CSc1nc2ncsc2c(=O)n1-c1cc(F)c(O)c(F)c1 [Example 4]
< 4.52	< 4.00	O=c1c2scnc2nc(SCc2c(F)cc(F)cc2F)n1-c1ccc(O)nc1 [Example 28]
< 4.00	< 4.00	O=c1c2scnc2nc(SCc2ccc(C(F)(F)F)cc2F)n1-c1cnc(O)nc1 [Example 57]
4.43	< 4.00	Cc1cc(F)ccc1CSc1nc2ncsc2c(=O)n1-c1ccc(O)nc1 [Example 29]
< 4.00	< 4.00	Cc1cc(F)ccc1CSc1nc2ncsc2c(=O)n1-c1ccc(O)nn1 [Example 68]
< 4.52	< 4.00	O=c1c2scnc2nc(SCc2ccc(Cl)cc2F)n1-c1ccc(O)nc1 [Example 22, 5-((4-Chloro-2-fluorobenzyl)thio)-6-(6-hydroxypyridin-3-yl)thiazolo[4,5-d]pyrimidin-7(6H)-one]
4.32	< 4.00	O=c1c2scnc2nc(SCc2c(F)cc(F)cc2F)n1-c1ccc(O)cn1 [Example 19]
< 4.00	< 4.00	O=c1c2scnc2nc(SCc2ccc(F)cc2F)n1-c1cnc(O)c(F)c1 [Example 38]
< 4.00	< 4.00	O=c1c2scnc2nc(SCc2c(F)cc(F)cc2F)n1-c1cnc(O)nc1 [Example 59]
< 4.52	< 4.00	N#Cc1cc(-n2c(SCc3c(F)cc(F)cc3F)nc3ncsc3c2=O)ccc1O [Example 18]
< 4.00	4.23	O=c1c2scnc2nc(SCc2c(F)cc(F)cc2F)n1-c1cc(F)c(O)nc1F [Example 51, 6-(2,5-Difluoro-6-hydroxypyridin-3-yl)-5-((2,4,6-trifluorobenzyl)thio)thiazolo[4,5-d]-pyrimidin-7(6H)-one]
< 4.00	< 4.00	Cc1cc(F)ccc1CSc1nc2ncsc2c(=O)n1-c1cnc(O)nc1 [Example 58]
< 4.00	< 4.00	O=c1c2scnc2nc(SCc2ccc(C(F)(F)F)cc2F)n1-c1cc(F)c(O)c(F)c1 [Example 6]
< 4.00	< 4.00	Cc1cc(F)ccc1CSc1nc2ncsc2c(=O)n1-c1cc(F)c(O)c(F)c1 [Example 9]
< 4.00	< 4.00	O=c1c2scnc2nc(SCc2ccc(C(F)(F)F)cc2F)n1-c1ccc(O)nn1 [Example 65]
< 4.00	4.22	O=c1c2scnc2nc(SCc2c(F)cc(F)cc2F)n1-c1ccc(O)nc1F [Example 50, 6-(2-Fluoro-6-hydroxypyridin-3-yl)-5-((2,4,6-trifluorobenzyl)thio)thiazolo[4,5-d]-pyrimidin-7(6H)-one]
< 4.00	< 4.00	Cc1cc(Cl)ccc1CSc1nc2ncsc2c(=O)n1-c1ccc(O)nc1 [Example 23]
< 4.00	< 4.00	Cc1cc(Cl)ccc1CSc1nc2ncsc2c(=O)n1-c1cc(F)c(O)c(F)c1 [Example 3]
